Measured values as given in patent EP0286252A2, “Anti-cancer composition & method featuring cyanine dyes” (DANA FARBER CANCER INSTITUTE, priority 1987, dated 1988).

Assays:
stomach cancer = conditions: treating stomach cancer in Japan; Antibiotics Chemother., Vol. 24 (1978); cited from earlier work
[1] = system: human melanoma cell line, LOX; assay: LOX melanoma survival test, nude mice protocol; type: in vivo, athymic Swiss nu/nu mice; conditions: for T/C: survival of treated vs untreated control group, 5 million LOX cells IP, IP treatment from day 1, lower dosage schedule for Dye 5
Text: (§1) Figs. 1-8 are a plot of survival rates of a cancer in an animal model, either treated as per the invention or untreated. In these plots, "% survival" means the % of the total group (treated "T" or control "C") still surviving on the day in question. The 50% data point is selected for the T/C calculation, as being the point that is statistically meaningful.
(§2) In the examples that follow, "nude mice protocol" refers to conventional xenografted human carcinoma or melanoma cells implanted into athymic mice. […] This has been reported in, e.g., the Journal of the National Cancer Institute, Vol. 74, No. 4, p. 899-903, especially p. […] (April 1985).
A human melanoma cell line, LOX, was utilized that grows rapidly when innoculated into the peritoneal cavity of athymic mice. Tumors which had been passaged subcutaneously in athymic mice were excised under sterile conditions and converted to a single cell suspension using a metal grid with a 4 mm mesh. Red blood cells were then lysed by incubation with 0.17 molar ammonium chloride at 4°C for 20 minutes. Cells were then scored for viability with trypan blue and 5 million viable cells made up in 0.1 ml of Dulbecco modified Eagles' medium (DME) were injected intraperitoneally into a group of athymic Swiss nu/nu mice (day 0). The mice were then randomly allocated into treatment and control groups. Treatment, by intraperitoneal injection, commenced the following day (day 1). Mice received dye No. 1 or Dye No. 2 at 1 mg/kg daily for five days followed by 1.5 mg/kg on day 8, 10, 12, 14 and 16, and twice a week at 2 mg/kg thereafter. There were 10 mice in each of the treatment groups and control group. The control group received 5% dextrose solution equal in volume to that of the Dye No. 1 treated group.
In the same experiment, the comparative example 1 was administered to 10 mice using the following schedule: 0.2 mg/kg daily for five days followed by 0.5 mg/kg on day 8, 10, 12, 14 and 16, and twice a week at 1 mg/kg thereafter.
T/C is the ratio, expressed as a percentage, of mean survival age of the treated group, to the mean survival age of the untreated control group.

MB49 tumor cells = assay: mouse bladder carcinoma survival test, dyes given intraperitoneally; type: in vivo, normal male BDF1 mice
Protocol: as §1
MB49 tumor cells, that is, mouse carcinoma cells induced by the carcinogen 7,12-dimethylbenz[a]anthracene, were injected intraperitoneally into normal male BDF1 mice (2 X 10⁶/mouse on day 0). Cyanine Dye No. 1 or No. 2, was administered intraperitioneally in the following manner: 0.2 mg/kg on day 1, 0.4 mg/kg on day 2, 0.8 mg/kg on day 3, 1.2 mg/kg on day 4, 1.5 mg/kg on days 8, 12, 16, 20, 24. (No further injection was used thereafter). […] (No further injection was used thereafter.) The control group of 10 mice was treated with equal volume of 5% dextrose as those treated with dye no. 1. The survival rate was calculated as in the previous examples.

[2] = system: CX-1 (human colon carcinoma); assay: clonogenic in vitro study, inhibition of cell colony formation; type: cell-based; conditions: concentration of dye that inhibits 50% of cell colony formation, regular lighting conditions of laboratories; for IC50: Homo sapiens
Text: As noted above, one of the advantages of the invention is that the cyanines described herein selectively attack the cancer cells as opposed to normal cells. Although knowledge of the mechanism is not essential to the practice of the invention, it is believed this occurs through the preferential inhibition of oxygen consumption in the mitochondria of the cancer cells. Such selectivity is further shown in clonogenic in vitro studies carried out in conventional fashion. That is, cell cultures of CX-1 (human colon carcinoma) and CV-1 (normal monkey epithelial cells) are prepared and treated at various concentrations, in the conventional manner, and the concentration of the dye that inhibits 50% of the cell colony formation is denoted as IC₅₀. This IC₅₀ value is compared for both the CX-1 and CV-1 lines; that is, the value for CV-1 is divided by the value for CX-1. If the value is 10 µg/ml for CV-1, and 1 µg/ml for CX-1, then the dye is 10 times as effective in killing off the colon carcinoma cells, compared to the monkey epithelial cells. This is expressed as a selectivity "S" of 10.
The selectivity values, and the CX-1 values for four of the cyanines of this invention obtained and tested under regular lighting conditions of laboratories, are listed below in Table I, along with a fifth cyanine used for comparative purposes.

[3] = system: CX-1 (human colon carcinoma) and CV-1 (normal monkey epithelial cells); assay: clonogenic in vitro selectivity, IC50 for CV-1 divided by IC50 for CX-1; type: cell-based; conditions: selectivity: IC50 value for CV-1 divided by value for CX-1
Protocol: That is, cell cultures of CX-1 (human colon carcinoma) and CV-1 (normal monkey epithelial cells) are prepared and treated at various concentrations, in the conventional manner, and the concentration of the dye that inhibits 50% of the cell colony formation is denoted as IC₅₀. This IC₅₀ value is compared for both the CX-1 and CV-1 lines; that is, the value for CV-1 is divided by the value for CX-1. […] This is expressed as a selectivity "S" of 10.
Their generic structure is as follows: [drawing 7]

[4] = system: OVCAR -3, a human ovarian carcinoma cell line; assay: ovarian carcinoma survival test, nude mice protocol; type: in vivo, athymic Swiss nu/nu mice; conditions: survival of treated vs control; ten million OVCAR-3 cells IP; IP treatment; lower dosage schedule for Dye 5
Text: as §1, §2
Dye Nos. 1 and 2 were repeated, except the cancer that was treated was OVCAR -3, a human ovarian carcinoma cell line of which ten million cells were injected IP into athymic Swiss nu/nu mice. For Ex. 5, 10 mice received dye 1 by IP injection commenced the day after the cancer injection, and repeated daily at 1.5 mg/kg for four days followed by 2 mg/kg on day 7, 10, 13, 16, 19 and 21, and twice a week at 2 mg/kg thereafter. Ten mice having such injected cancer were selected as a control group and received an equal volume of 5% dextrose as that of the treated group.
For Ex. 6, 10 mice received dye no. […]

Compound | T/C [1] [%] | IC50 [2] [ng/mL] | S [3] | other results
COc1cccc2c1C(=O)c1c(O)c3c(c(O)c1C2=O)C[C@@](O)(C(=O)CO)C[C@@H]3O[C@H]1C[C@H](N)[C@H](O)[C@H](C)O1 [Adriamycin] | – | – | – | effective response rate (stomach cancer): 14.5%
CN1C(=CC=Cc2sc3ccccc3[n+]2C)Sc2ccccc21 [Dye No. 1, 3-methyl-2-[3-(3-methyl-4-benzo-thiazolin-2-ylidene)-1-propen-1-yl]-benzo-thiazolium chloride] | 205 | – | – | –
CCN1C(=CC=Cc2sc3ccccc3[n+]2CC)Sc2ccccc21 [Dye No. 2, 3-ethyl-2-[3-(3-ethyl-4-benzothia-zolin-2-ylidene)-1-propen-1-yl]-benzothiazolium iodide] | 176 | – | – | –
CCCN1C(=CC=Cc2sc3ccccc3[n+]2CCC)Sc2ccccc21 [Dye No. 5, 3-propyl-2-[3-(3-propyl-4-benzothia-zolin-2-ylidene)-1-propen-1-yl]benzothiazolium iodide] | – | – | – | outcome of treatment (verdict in words) (MB49 tumor cells; MB49 mouse bladder carcinoma, IP): failure; toxicity at the dosage of Dye No. 1 ([1]; LOX-bearing athymic mice, IP, dosage schedule of Dye No. 1 (1 mg/kg daily for five days, then 1.5 and 2 mg/kg)): killed the mice before the 50% survival point of the control could be reached; T/C ([1]; listed as 3): 168%; CX-1 Value ([2]; listed as 3): .004 µg/mL
CN1C(=CC=Cc2sc3ccccc3[n+]2C)Sc2ccccc21 [compound 1] | – | 5 | – | –
CCN1C(=CC=Cc2sc3ccccc3[n+]2CC)Sc2ccccc21 [compound 2] | – | 5 | – | –
CCN1C(=CC=c2sc(=Cc3sc4c([n+]3CC)CCCC4)n(CC)c2=O)Oc2ccccc21 [compound 4] | 166 | 50 | 100 | –
CCCN1C(=CC=Cc2sc3ccccc3[n+]2CCC)Sc2ccccc21 [compound 5] | 128 | – | 22 | T/C [4]: 138%; T/C (MB49 tumor cells; survival of treated vs control, 2 X 10^6 MB49 cells/mouse IP, IP treatment, lower dosage schedule for dye No. 5): 113%; CX-1 Value [2]: .009 µg/mL
CCN1C(=CC(=Cc2sc3ccccc3[n+]2C)SC)Sc2ccccc21 [compound 6] | – | – | 37.5 | –
CCC(=Cc1oc2ccccc2[n+]1CC)C=C1Sc2ccccc2N1CC [compound 7] | – | – | 33.3 | –
